From patent US20220081422A1 (Janssen Biotech, Inc., priority 2019, published 2022)

Assays:
[1] = test system: MOLM-13 cells; test: MOLM-13 cellular assay (CellTiter-Glo cell viability); format: cell-based; conditions: 72 hours exposure, cell viability by CellTiter-Glo
Protocol: In Vitro Assay: MOLM-13 Cellular Assay
MOLM-13 cells were obtained from DSMZ and were maintained in RPMI 1640+Glutamax+25 mM HEPES (Invitrogen, catalog number 72400) supplemented with 10% heat inactivated fetal bovine serum (FBS; Invitrogen, catalog number 16140). The day prior to assay set-up, cells were pelleted, resuspended in fresh media, counted, and cells were plated at 0.4×10^6 cell/mL in a T150 flask. On the day of the assay, cells were pelleted, resuspend in fresh media, counted and seeded at 5,000 cells/well in white opaque 96-well tissue culture treated microplates (Perkin Elmer, catalog number 6005680). Cells were exposed to different concentrations of test compounds at 37° C., 5% CO2 for 72 hours immediately after seeding. Cell viability was acquired on a Perkin Elmer Envision 2104 multilabel reader using the CellTiter-Glo assay (Promega) according to the manufacturer's instructions.

[2] = biological target: T1, human DHODH (Homo sapiens, UniProt Q02127); test: DHODH enzymatic assay (DCIP absorbance, end-point); format: biochemical; conditions: purified human DHODH, DCIP as final electron acceptor, end-point mode; read-out: hDHODH IC50
T1 construct: purchased Proteros PR-0044
Protocol: In vitro Assay: DHODH enzymatic assay
To detect DHODH enzyme activities, dichloroindophenol (DCIP) is added as the final electron acceptor in the assay. DCIP can accept electrons from the reduced coenzyme Q generated in the assay, or from dihydroorotate (DHO) via FMN by binding presumably to the ubiquinone pocket. […] The assay buffer contained […], pH 7.5, 150 mM NaCl, 0.5 mM EDTA, and 0.1% Triton X-100 in MilliQ water. Substrate consisting of 20 mM DHO, 5 mM CoQ6, and 1 mM DCIP in assay buffer, initiates the reaction. […] Absorbance measurements were obtained using the BMG Phera Star plate-reading spectrophotometer. Purified human DHODH was purchased from Proteros (cat. No. PR-0044). Chemicals were purchased from Sigma-Aldrich, Teknova, and Avanti Polar Lipids. Liquid handling was performed using Labcyte Echo and Formulatrix Tempest.

T1 sequence (Q02127 whole entry): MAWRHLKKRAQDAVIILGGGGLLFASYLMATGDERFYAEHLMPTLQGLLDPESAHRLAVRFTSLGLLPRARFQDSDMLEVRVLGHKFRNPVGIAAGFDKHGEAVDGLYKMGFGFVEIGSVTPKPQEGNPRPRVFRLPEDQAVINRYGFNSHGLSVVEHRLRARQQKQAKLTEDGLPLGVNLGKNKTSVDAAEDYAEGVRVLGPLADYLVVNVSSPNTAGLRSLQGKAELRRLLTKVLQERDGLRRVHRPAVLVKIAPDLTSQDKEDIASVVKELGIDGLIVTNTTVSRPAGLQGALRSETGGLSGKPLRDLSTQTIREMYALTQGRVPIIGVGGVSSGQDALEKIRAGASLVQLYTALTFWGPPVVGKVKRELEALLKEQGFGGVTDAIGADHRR

Compound | IC50 ([1]; Homo sapiens, MOLM-13, 72 h) [nM] | IC50 [2] [nM] | IC50 [1] [nM]
CCn1c(CO)nn(-c2ccc3c(c2)C(C(C)C)CN(c2ccccc2F)C3=O)c1=O (racemic) [Example 12, Racemic-6-(4-Ethyl-3-(hydroxymethyl)-5-oxo-4,5-dihydro-1H-1,2,4-triazol-1-yl)-2-(2-fluorophenyl)-4-isopropyl-3,4-dihydroisoquinolin-1(2H)-one] | 58 | 140 | 
CCn1c(CO)nn(-c2cc3c(cc2F)C(=O)N(c2ccccc2Cl)CC3C(C)C)c1=O (single isomer, unassigned) [Example 36, (S*)-2-(2-Chlorophenyl)-6-(4-ethyl-3-(hydroxymethyl)-5-oxo-4,5-dihydro-1H-1,2,4-triazol-1-yl)-7-fluoro-4-isopropyl-3,4-dihydroisoquinolin-1(2H)-one] |  | 30 | 31.6
CCn1c(CO)nn(-c2nc3c(cc2F)C(=O)N(c2c(F)cccc2Cl)CN3C2CC2)c1=O [Example 9, 3-(2-Chloro-6-fluorophenyl)-1-cyclopropyl-7-(4-ethyl-3-(hydroxymethyl)-5-oxo-4,5-dihydro-1H-1,2,4-triazol-1-yl)-6-fluoro-2,3-dihydropyrido[2,3-d]pyrimidin-4(1H)-one] | 1.7 | 11 | 
C=C(C)[C@H]1CN(c2c(C)cnc(OC)c2C)C(=O)c2cc(F)c(-n3nc(CO)n(CC)c3=O)cc21 (single isomer, unassigned; atropisomer 1) [Example 55, Atropisomer 1, (R *)-6-(4-Ethyl-3-(hydroxymethyl)-5-oxo-4,5-dihydro-1H-1,2,4-triazol-1-yl)-7-fluoro-2-(2-methoxy-3,5-dimethylpyridin-4-yl)-4-(prop-1-en-2-yl)-3,4-dihydroisoquinolin-1(2H)-one] |  | > 100 | 1160
CCn1c(CO)nn(-c2ccc3c(c2)C(c2ccccc2)CN(c2cccc(F)c2)C3=O)c1=O (racemic) [Example 14, Racemic-6-(4-Ethyl-3-(hydroxymethyl)-5-oxo-4,5-dihydro-1H-1,2,4-triazol-1-yl)-2-(3-fluorophenyl)-4-phenyl-3,4-dihydroisoquinolin-1(2H)-one] | 758 | 1030 | 
CCn1c(CO)nn(-c2ccc3c(c2)C(C(C)C)CN(c2c(F)cccc2Cl)C3=O)c1=O (racemic) [Example 13, Racemic-2-(2-Chloro-6-fluorophenyl)-6-(4-ethyl-3-(hydroxymethyl)-5-oxo-4,5-dihydro-1H-1,2,4-triazol-1-yl)-4-isopropyl-3,4-dihydroisoquinolin-1(2H)-one] | 7.2 | 20 | 
CCn1c(CO)nn(-c2cc3c(cc2F)C(=O)N(c2c(C)cnc(OC)c2Cl)CC3C(C)C)c1=O (single isomer, unassigned) [Example 66, (S*)-2-(3-Chloro-2-methoxy-5-methylpyridin-4-yl)-6-(4-ethyl-3-(hydroxymethyl)-5-oxo-4,5-dihydro-1H-1,2,4-triazol-1-yl)-7-fluoro-4-isopropyl-3,4-dihydroisoquinolin-1(2H)-one] |  | 2 | 2.96
C=C(C)[C@H]1CN(c2c(C)ccnc2OC)C(=O)c2cc(F)c(-n3nc(CO)n(CC)c3=O)cc21 (single isomer, unassigned; atropisomer 2) [Example 53, Atropisomer 2, (R*)-6-(4-Ethyl-3-(hydroxymethyl)-5-oxo-4,5-dihydro-1H-1,2,4-triazol-1-yl)-7-fluoro-2-(2-methoxy-4-methylpyridin-3-yl)-4-(prop-1-en-2-yl)-3,4-dihydroisoquinolin-1(2H)-one] |  |  | 3.36
CCn1c(CO)nn(-c2nc3c(cc2F)C(=O)N(c2c(F)cccc2Cl)CN3C2CCOCC2)c1=O [Example 6, 3-(2-Chloro-6-fluorophenyl)-7-(4-ethyl-3-(hydroxymethyl)-5-oxo-4,5-dihydro-1H-1,2,4-triazol-1-yl)-6-fluoro-1-(tetrahydro-2H-pyran-4-yl)-2,3-dihydropyrido[2,3-d]pyrimidin-4(1H)-one] | 50 | 57 | 
C=C(C)[C@@H]1CN(c2c(C)cnc(OC)c2Cl)C(=O)c2cc(F)c(-n3nc(CO)n(CC)c3=O)cc21 (single isomer, unassigned; atropisomer 2) [Example 64, Atropisomer 2, (S*)-2-(3-Chloro-2-methoxy-5-methylpyridin-4-yl)-6-(4-ethyl-3-(hydroxymethyl)-5-oxo-4,5-dihydro-1H-1,2,4-triazol-1-yl)-7-fluoro-4-(prop-1-en-2-yl)-3,4-dihydroisoquinolin-1(2H)-one] |  | 60 | 15.3
CCn1c(CO)nn(-c2ccc3c(c2)C(C(C)C(F)(F)F)CN(c2ccccc2F)C3=O)c1=O (centres unmarked) [Example 74, 6-(4-Ethyl-3-(hydroxymethyl)-5-oxo-4,5-dihydro-1H-1,2,4-triazol-1-yl)-2-(2-fluorophenyl)-4-(1,1,1-trifluoropropan-2-yl)-3,4-dihydroisoquinolin-1(2H)-one] | 102 |  | 
C=C(C)[C@H]1CN(c2c(C)ccnc2OC)C(=O)c2cc(F)c(-n3nc(CO)n(CC)c3=O)cc21 (single isomer, unassigned; atropisomer 1) [Example 52, Atropisomer 1, (R *)-6-(4-Ethyl-3-(hydroxymethyl)-5-oxo-4,5-dihydro-1H-1,2,4-triazol-1-yl)-7-fluoro-2-(2-methoxy-4-methylpyridin-3-yl)-4-(prop-1-en-2-yl)-3,4-dihydroisoquinol in-1 (2H)-one] |  |  | 105
C=C(C)C1CN(c2c(C)ccnc2Cl)C(=O)c2cc(F)c(-n3nc(CO)n(CC)c3=O)cc21 (single isomer, unassigned) [Example 46, (S*)-2-(2-Chloro-4-methylpyridin-3-yl)-6-(4-ethyl-3-(hydroxymethyl)-5-oxo-4,5-dihydro-1H-1,2,4-triazol-1-yl)-7-fluoro-4-(prop-1-en-2-yl)-3,4-dihydroisoquinolin-1(2H)-one] |  |  | 5.46
C=C(C)C1CN(c2c(C)ccnc2Cl)C(=O)c2cc(F)c(-n3nc(CO)n(CC)c3=O)cc21 (single isomer, unassigned) [Example 47, (R *)-2-(2-Chloro-4-methylpyridin-3-yl)-6-(4-ethyl-3-(hydroxymethyl)-5-oxo-4,5-dihydro-1H-1,2,4-triazol-1-yl)-7-fluoro-4-(prop-1-en-2-yl)-3,4-dihydroisoquinolin-1 (2H)-one] |  |  | 298
CCn1c(CO)nn(-c2cc3c(cc2F)C(=O)N(c2c(F)cccc2Cl)CN3C(C)C)c1=O [Example 1, 3-(2-Chloro-6-fluorophenyl)-7-(4-ethyl-3-(hydroxymethyl)-5-oxo-4,5-dihydro-1H-1,2,4-triazol-1-yl)-6-fluoro-1-isopropyl-2,3-dihydroquinazolin-4(1H)-one] | 0.85 |  | 
C=C(C)[C@H]1CN(c2c(C)cnc(OC)c2Cl)C(=O)c2cc(F)c(-n3nc(CO)n(CC)c3=O)cc21 (single isomer, unassigned; atropisomer 2) [Example 65, Atropisomer 2, (R*)-2-(3-Chloro-2-methoxy-5-methylpyridin-4-yl)-6-(4-ethyl-3-(hydroxymethyl)-5-oxo-4,5-dihydro-1H-1,2,4-triazol-1-yl)-7-fluoro-4-(prop-1-en-2-yl)-3,4-dihydroisoquinolin-1(2H)-one] |  |  | 20.7
CCn1c(CO)nn(-c2ccc3c(c2)C(C(C)C(F)(F)F)CN(c2c(F)cccc2Cl)C3=O)c1=O (centres unmarked) [Example 75, 2-(2-Chloro-6-fluorophenyl)-6-(4-ethyl-3-(hydroxymethyl)-5-oxo-4,5-dihydro-1H-1,2,4-triazol-1-yl)-4-(1,1,1-trifluoropropan-2-yl)-3,4-dihydroisoquinolin-1(2H)-one] | 16.1 |  | 
